Laboratory results from PubChem BioAssay AID2060893 (Molecular Pharmacology Branch, DTP, NCI, 2025).

Test system: K86415-001-R-J1-PDC complex spheroids, viability
Assay: Anticancer human tumor K86415-001-R-J1-PDC patient-derived lung adenocarcinoma cell line growth inhibition [RAS]
Conditions: for viability, T/C: stronger effect = lower value
Procedure, shortened: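 Multi-cell-type spheroids: tumor cells plus HUVEC endothelial cells and mesenchymal stem cells. RAS-pathway inhibitors were combined with targeted agents, each dosed in half-log steps down from clinical Cmax, or from 10 microM when Cmax was unknown.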
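Further: spheroids exposed to agents for seven days before readout.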

CC(Nc1ccc2c(c1)OCCn1cc(N3C(=O)OCC3C(F)F)nc1-2)C(N)=O (stereo not drawn)
viability, T/C (compound 0.0316 µM): 94.1% [middle of 4 runs]
viability, T/C (compound 0.1 µM): 86% [middle of 4 runs]
viability, T/C (compound 0.316 µM): 71.7% [middle of 4 runs]
viability, T/C (compound 1 µM): 54.5% [middle of 4 runs]
viability, T/C (compound 3.16 µM): 40.5% [middle of 4 runs]
viability, T/C (compound 10 µM): 29.4% [middle of 4 runs]
IC50 (curve of compound): 1.48 µM [middle of 4 runs]

Cc1nc(N2CCC3(CC2)COC(C)C3N)c(CO)nc1Sc1ccnc(N)c1Cl (stereo not drawn)
viability, T/C (compound 0.0316 µM): 76.3% [middle of 4 runs]
viability, T/C (compound 0.1 µM): 53.6% [middle of 4 runs]
viability, T/C (compound 0.316 µM): 36.6% [middle of 4 runs]
viability, T/C (compound 1 µM): 27.2% [middle of 4 runs]
viability, T/C (compound 3.16 µM): 24.6% [middle of 4 runs]
viability, T/C (compound 10 µM): 20.1% [middle of 4 runs]
IC50 (curve of compound): 122 nM [middle of 4 runs]

CCc1c2c(nc3ccc(O)cc13)-c1cc3c(c(=O)n1C2)COC(=O)[C@]3(O)CC + C#Cc1c(F)ccc2cc(O)cc(-c3ncc4c(N5CC6CCC(C5)N6)nc(OCC56CCCN5CC(F)C6)nc4c3F)c12
IC50 (curve of first compound, second compound 0.0316 µM): 2.54 nM
IC50 (curve of first compound, second compound 0.1 µM): 2.62 nM
IC50 (curve of first compound, second compound 0.316 µM): 2.35 nM
IC50 (curve of first compound, second compound 1 µM): 1.79 nM
IC50 (curve of first compound, second compound 3.16 µM): < 0.949 nM
IC50 (curve of first compound, second compound 10 µM): < 0.949 nM
viability, T/C (second compound 0.0316 µM, first compound 0.000949 µM): 93.6%
viability, T/C (second compound 0.0316 µM, first compound 0.003 µM): 41.2%
viability, T/C (second compound 0.0316 µM, first compound 0.00949 µM): 21.4%
viability, T/C (second compound 0.0316 µM, first compound 0.03 µM): 17%
viability, T/C (second compound 0.0316 µM, first compound 0.0949 µM): 10.5%
viability, T/C (second compound 0.0316 µM, first compound 0.3 µM): 5.25%
viability, T/C (second compound 0.1 µM, first compound 0.000949 µM): 85%
viability, T/C (second compound 0.1 µM, first compound 0.003 µM): 44.7%
viability, T/C (second compound 0.1 µM, first compound 0.00949 µM): 24.1%
viability, T/C (second compound 0.1 µM, first compound 0.03 µM): 14%
viability, T/C (second compound 0.1 µM, first compound 0.0949 µM): 9.47%
viability, T/C (second compound 0.1 µM, first compound 0.3 µM): 5.05%
viability, T/C (second compound 0.316 µM, first compound 0.000949 µM): 80.7%
viability, T/C (second compound 0.316 µM, first compound 0.003 µM): 40.4%
viability, T/C (second compound 0.316 µM, first compound 0.00949 µM): 23.9%
viability, T/C (second compound 0.316 µM, first compound 0.03 µM): 15.6%
viability, T/C (second compound 0.316 µM, first compound 0.0949 µM): 11.5%
viability, T/C (second compound 0.316 µM, first compound 0.3 µM): 5.49%
viability, T/C (second compound 1 µM, first compound 0.000949 µM): 69.1%
viability, T/C (second compound 1 µM, first compound 0.003 µM): 34.6%
viability, T/C (second compound 1 µM, first compound 0.00949 µM): 17.2%
viability, T/C (second compound 1 µM, first compound 0.03 µM): 13.6%
viability, T/C (second compound 1 µM, first compound 0.0949 µM): 10.5%
viability, T/C (second compound 1 µM, first compound 0.3 µM): 6.31%
viability, T/C (second compound 3.16 µM, first compound 0.000949 µM): 46%
viability, T/C (second compound 3.16 µM, first compound 0.003 µM): 33.3%
viability, T/C (second compound 3.16 µM, first compound 0.00949 µM): 22.5%
viability, T/C (second compound 3.16 µM, first compound 0.03 µM): 15.5%
viability, T/C (second compound 3.16 µM, first compound 0.0949 µM): 13.9%
viability, T/C (second compound 3.16 µM, first compound 0.3 µM): 6.66%
viability, T/C (second compound 10 µM, first compound 0.000949 µM): 17%
viability, T/C (second compound 10 µM, first compound 0.003 µM): 12.8%
viability, T/C (second compound 10 µM, first compound 0.00949 µM): 16.1%
viability, T/C (second compound 10 µM, first compound 0.03 µM): 18.1%
viability, T/C (second compound 10 µM, first compound 0.0949 µM): 14.2%
viability, T/C (second compound 10 µM, first compound 0.3 µM): 6.63%

CC(Nc1ccc2c(c1)OCCn1cc(N3C(=O)OCC3C(F)F)nc1-2)C(N)=O (stereo not drawn) + CCn1c(-c2cc(N3CCN(C)CC3)cnc2C(C)OC)c2c3cc(ccc31)-c1csc(n1)CC(NC(=O)C1CC1C)C(=O)N1CCCC(N1)C(=O)OCC(C)(C)C2
IC50 (curve of first compound, second compound 0.000949 µM): < 31.6 nM
IC50 (curve of first compound, second compound 0.003 µM): < 31.6 nM
IC50 (curve of first compound, second compound 0.00949 µM): < 31.6 nM
IC50 (curve of first compound, second compound 0.03 µM): < 31.6 nM
IC50 (curve of first compound, second compound 0.0949 µM): < 31.6 nM
IC50 (curve of first compound, second compound 0.3 µM): < 31.6 nM
viability, T/C (second compound 0.000949 µM, first compound 0.0316 µM): 44.1%
viability, T/C (second compound 0.000949 µM, first compound 0.1 µM): 28.2%
viability, T/C (second compound 0.000949 µM, first compound 0.316 µM): 22.2%
viability, T/C (second compound 0.000949 µM, first compound 1 µM): 20.6%
viability, T/C (second compound 0.000949 µM, first compound 3.16 µM): 16.6%
viability, T/C (second compound 0.000949 µM, first compound 10 µM): 6.57%
viability, T/C (second compound 0.003 µM, first compound 0.0316 µM): 18.8%
viability, T/C (second compound 0.003 µM, first compound 0.1 µM): 12.9%
viability, T/C (second compound 0.003 µM, first compound 0.316 µM): 12.1%
viability, T/C (second compound 0.003 µM, first compound 1 µM): 8.44%
viability, T/C (second compound 0.003 µM, first compound 3.16 µM): 5.02%
viability, T/C (second compound 0.003 µM, first compound 10 µM): 1.84%
viability, T/C (second compound 0.00949 µM, first compound 0.0316 µM): 11.8%
viability, T/C (second compound 0.00949 µM, first compound 0.1 µM): 4.96%
viability, T/C (second compound 0.00949 µM, first compound 0.316 µM): 3.08%
viability, T/C (second compound 0.00949 µM, first compound 1 µM): 2.36%
viability, T/C (second compound 0.00949 µM, first compound 3.16 µM): 1.25%
viability, T/C (second compound 0.00949 µM, first compound 10 µM): 0.72%
viability, T/C (second compound 0.03 µM, first compound 0.0316 µM): 4.01%
viability, T/C (second compound 0.03 µM, first compound 0.1 µM): 1.42%
viability, T/C (second compound 0.03 µM, first compound 0.316 µM): 1.24%
viability, T/C (second compound 0.03 µM, first compound 1 µM): 1.2%
viability, T/C (second compound 0.03 µM, first compound 3.16 µM): 0.54%
viability, T/C (second compound 0.03 µM, first compound 10 µM): 0.63%
viability, T/C (second compound 0.0949 µM, first compound 0.0316 µM): 1.94%
viability, T/C (second compound 0.0949 µM, first compound 0.1 µM): 1.08%
viability, T/C (second compound 0.0949 µM, first compound 0.316 µM): 0.93%
viability, T/C (second compound 0.0949 µM, first compound 1 µM): 0.62%
viability, T/C (second compound 0.0949 µM, first compound 3.16 µM): 0.8%
viability, T/C (second compound 0.0949 µM, first compound 10 µM): 0.59%
viability, T/C (second compound 0.3 µM, first compound 0.0316 µM): 2.35%
viability, T/C (second compound 0.3 µM, first compound 0.1 µM): 0.93%
viability, T/C (second compound 0.3 µM, first compound 0.316 µM): 0.73%
viability, T/C (second compound 0.3 µM, first compound 1 µM): 0.47%
viability, T/C (second compound 0.3 µM, first compound 3.16 µM): 0.85%
viability, T/C (second compound 0.3 µM, first compound 10 µM): 0.49%
